{"source": "patent US12492177B2", "about": "“RAR-α compounds for inflammatory disease and male contraception” (Orphagen Pharmaceuticals, Inc., priority 2019, dated 2025)", "assay_type_in_all_cases": "cell-based", "key": {"[1]": {"target": "T1, RARβ (Homo sapiens, UniProt P10826)", "T1 sequence (P10826 1-455)": "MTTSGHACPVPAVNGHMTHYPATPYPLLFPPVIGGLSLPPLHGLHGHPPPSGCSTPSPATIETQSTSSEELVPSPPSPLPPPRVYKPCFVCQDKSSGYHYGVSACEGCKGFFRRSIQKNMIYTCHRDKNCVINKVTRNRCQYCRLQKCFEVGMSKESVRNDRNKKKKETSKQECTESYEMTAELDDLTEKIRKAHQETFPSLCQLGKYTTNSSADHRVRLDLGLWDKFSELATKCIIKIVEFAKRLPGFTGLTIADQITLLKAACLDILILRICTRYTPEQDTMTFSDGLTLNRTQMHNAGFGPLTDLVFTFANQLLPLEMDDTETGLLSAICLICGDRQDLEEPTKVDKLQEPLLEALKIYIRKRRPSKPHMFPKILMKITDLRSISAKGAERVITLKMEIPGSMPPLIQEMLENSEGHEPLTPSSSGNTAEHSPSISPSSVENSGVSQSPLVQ", "assay": "RARβ transcriptional assay, antagonist activity", "settings": "in the presence of 0.5 nM TTNPB", "method": "(§1) Transcriptional assays for RARα, RARβ and RARγ, which measure the antagonist or agonist like activity of the compounds are described in WO 2017/201200 A1 (Thacher, Crowe, Tao and Raheja, Therapeutic compositions containing RAR-alpha antagonists) published on Nov. 23, 2017, which is also incorporated herein by reference. The results obtained in these assays are expressed as EC50 values when measuring agonist activity and IC50 values when measuring antagonist activity in the presence of 0.5 nM TTNPB, a retinoid agonist."}, "[2]": {"target": "T2, RARγ (Homo sapiens, UniProt P13631)", "T2 sequence (P13631 1-454)": "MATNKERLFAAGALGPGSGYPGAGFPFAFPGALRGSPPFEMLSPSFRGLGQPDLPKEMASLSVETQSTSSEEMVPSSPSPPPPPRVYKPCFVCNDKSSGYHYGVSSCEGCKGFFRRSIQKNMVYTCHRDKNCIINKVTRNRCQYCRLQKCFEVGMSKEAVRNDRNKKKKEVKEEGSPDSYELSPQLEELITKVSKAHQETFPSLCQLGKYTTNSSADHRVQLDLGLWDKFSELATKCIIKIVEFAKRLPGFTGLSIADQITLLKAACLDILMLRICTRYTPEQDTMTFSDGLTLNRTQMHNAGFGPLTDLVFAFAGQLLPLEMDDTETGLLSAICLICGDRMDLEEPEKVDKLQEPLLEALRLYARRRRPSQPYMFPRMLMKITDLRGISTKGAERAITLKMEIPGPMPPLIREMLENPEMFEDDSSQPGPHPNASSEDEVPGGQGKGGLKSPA", "assay": "RARγ transcriptional assay, agonist activity", "settings": "agonist mode", "method": "as §1"}, "[3]": {"target": "T3, RARα (Homo sapiens, UniProt P10276)", "T3 sequence (P10276 1-462)": "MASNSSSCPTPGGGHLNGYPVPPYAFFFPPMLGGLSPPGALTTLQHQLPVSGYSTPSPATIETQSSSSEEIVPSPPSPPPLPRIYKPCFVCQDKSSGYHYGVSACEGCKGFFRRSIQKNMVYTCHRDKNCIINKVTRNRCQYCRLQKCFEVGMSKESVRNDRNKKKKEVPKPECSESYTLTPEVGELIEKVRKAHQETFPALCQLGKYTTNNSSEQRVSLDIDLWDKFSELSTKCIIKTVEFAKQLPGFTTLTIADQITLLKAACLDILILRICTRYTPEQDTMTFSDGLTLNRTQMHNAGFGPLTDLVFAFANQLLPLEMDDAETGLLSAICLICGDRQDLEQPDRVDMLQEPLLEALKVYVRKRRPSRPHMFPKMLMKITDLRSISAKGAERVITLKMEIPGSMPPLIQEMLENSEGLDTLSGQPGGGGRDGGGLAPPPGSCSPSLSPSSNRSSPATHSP", "assay": "RARα transcriptional assay, antagonist activity", "settings": "in the presence of 0.5 nM TTNPB", "method": "as §1"}, "[4]": {"target": "T1, RARβ", "assay": "RARβ transcriptional assay, agonist activity", "settings": "agonist mode", "method": "as §1"}, "[5]": {"target": "T2, RARγ", "assay": "RARγ transcriptional assay, antagonist activity", "settings": "in the presence of 0.5 nM TTNPB", "method": "as §1"}, "[6]": {"target": "T3, RARα", "assay": "RARα transcriptional assay, agonist activity", "settings": "agonist mode", "method": "as §1"}}}
{"compound": "CN1CCC(C2=CC(C)(C)Oc3c(Br)cc(C(=O)Nc4ccc(C(=O)O)c(F)c4)cc32)CC1", "note": "[Compound 32]", "values": [{"measurement": "IC50", "setting": "[1]", "value": "> 1000", "unit": "nM"}, {"measurement": "EC50", "setting": "[2]", "value": "> 1000", "unit": "nM"}, {"measurement": "IC50", "setting": "[3]", "value": "> 1000", "unit": "nM"}, {"measurement": "EC50", "setting": "[4]", "value": "> 1000", "unit": "nM"}, {"measurement": "IC50", "setting": "[5]", "value": "> 1000", "unit": "nM"}, {"measurement": "EC50", "setting": "[6]", "value": "> 1000", "unit": "nM"}]}
{"compound": "CC(C)C1=CC(C)(C)Oc2c(Br)cc(C(=O)Nc3ccc(C(=O)O)c(F)c3)cc21", "note": "[Compound 33]", "values": [{"measurement": "IC50", "setting": "[1]", "value": "> 1000", "unit": "nM"}, {"measurement": "EC50", "setting": "[2]", "value": "101 to 1000", "unit": "nM"}, {"measurement": "IC50", "setting": "[3]", "value": "> 1000", "unit": "nM"}, {"measurement": "EC50", "setting": "[4]", "value": "11 to 100", "unit": "nM"}, {"measurement": "IC50", "setting": "[5]", "value": "> 1000", "unit": "nM"}, {"measurement": "EC50", "setting": "[6]", "value": "< 1", "unit": "nM"}]}
{"compound": "CC1(C)C=C(C2CCOCC2)c2cc(C(=O)Nc3ccc(C(=O)O)c(F)c3)cc(Br)c2O1", "note": "[Compound 34]", "values": [{"measurement": "IC50", "setting": "[1]", "value": "> 1000", "unit": "nM"}, {"measurement": "EC50", "setting": "[2]", "value": "101 to 1000", "unit": "nM"}, {"measurement": "Antagonist Activity RARα Efficacy", "setting": "[3]", "value": "† (†, RARα antagonist efficacy >85%)"}, {"measurement": "IC50", "setting": "[3]", "value": "11 to 100", "unit": "nM"}, {"measurement": "EC50", "setting": "[4]", "value": "101 to 1000", "unit": "nM"}, {"measurement": "IC50", "setting": "[5]", "value": "> 1000", "unit": "nM"}, {"measurement": "EC50", "setting": "[6]", "value": "101 to 1000", "unit": "nM"}]}
{"compound": "CC1CCC(C2=CC(C)(C)Oc3c(Br)cc(C(=O)Nc4ccc(C(=O)O)c(F)c4)cc32)CC1", "note": "(stereo not drawn) [Compound 35]", "values": [{"measurement": "IC50", "setting": "[1]", "value": "11 to 100", "unit": "nM"}, {"measurement": "EC50", "setting": "[2]", "value": "> 1000", "unit": "nM"}, {"measurement": "Antagonist Activity RARα Efficacy", "setting": "[3]", "value": "† (†, RARα antagonist efficacy >85%)"}, {"measurement": "IC50", "setting": "[3]", "value": "< 1", "unit": "nM"}, {"measurement": "EC50", "setting": "[4]", "value": "> 1000", "unit": "nM"}, {"measurement": "IC50", "setting": "[5]", "value": "> 1000", "unit": "nM"}, {"measurement": "EC50", "setting": "[6]", "value": "> 1000", "unit": "nM"}]}
{"compound": "CC1(C)C=C([C@H]2CC[C@@H](C)CC2)c2cc(C(=O)Nc3ccc(C(=O)O)c(F)c3)cc(Br)c2O1", "note": "[Compound 36]", "values": [{"measurement": "IC50", "setting": "[1]", "value": "> 1000", "unit": "nM"}, {"measurement": "EC50", "setting": "[2]", "value": "> 1000", "unit": "nM"}, {"measurement": "Antagonist Activity RARα Efficacy", "setting": "[3]", "value": "† (†, RARα antagonist efficacy >85%)"}, {"measurement": "IC50", "setting": "[3]", "value": "< 1", "unit": "nM"}, {"measurement": "EC50", "setting": "[4]", "value": "> 1000", "unit": "nM"}, {"measurement": "IC50", "setting": "[5]", "value": "> 1000", "unit": "nM"}, {"measurement": "EC50", "setting": "[6]", "value": "> 1000", "unit": "nM"}]}
{"compound": "CC#CC1=CC(C)(C)Oc2c(Br)cc(C(=O)Nc3ccc(C(=O)O)c(F)c3)cc21", "note": "[Compound 37]", "values": [{"measurement": "IC50", "setting": "[1]", "value": "> 1000", "unit": "nM"}, {"measurement": "EC50", "setting": "[2]", "value": "> 1000", "unit": "nM"}, {"measurement": "IC50", "setting": "[3]", "value": "1 to 10", "unit": "nM"}, {"measurement": "EC50", "setting": "[4]", "value": "101 to 1000", "unit": "nM"}, {"measurement": "IC50", "setting": "[5]", "value": "> 1000", "unit": "nM"}, {"measurement": "EC50", "setting": "[6]", "value": "11 to 100", "unit": "nM"}]}
{"compound": "CC1(C)CCC(C2=CC(C)(C)Oc3c(Br)cc(C(=O)Nc4ccc(C(=O)O)c(F)c4)cc32)CC1", "note": "[Compound 38]", "values": [{"measurement": "IC50", "setting": "[1]", "value": "11 to 100", "unit": "nM"}, {"measurement": "EC50", "setting": "[2]", "value": "> 1000", "unit": "nM"}, {"measurement": "Antagonist Activity RARα Efficacy", "setting": "[3]", "value": "† (†, RARα antagonist efficacy >85%)"}, {"measurement": "IC50", "setting": "[3]", "value": "< 1", "unit": "nM"}, {"measurement": "EC50", "setting": "[4]", "value": "> 1000", "unit": "nM"}, {"measurement": "IC50", "setting": "[5]", "value": "11 to 100", "unit": "nM"}, {"measurement": "EC50", "setting": "[6]", "value": "> 1000", "unit": "nM"}]}
{"compound": "CC[C@H]1CC[C@H](C2=CC(C)(C)Oc3c(Br)cc(C(=O)Nc4ccc(C(=O)O)c(F)c4)cc32)CC1", "note": "[Compound 39]", "values": [{"measurement": "IC50", "setting": "[1]", "value": "101 to 1000", "unit": "nM"}, {"measurement": "EC50", "setting": "[2]", "value": "> 1000", "unit": "nM"}, {"measurement": "Antagonist Activity RARα Efficacy", "setting": "[3]", "value": "† (†, RARα antagonist efficacy >85%)"}, {"measurement": "IC50", "setting": "[3]", "value": "< 1", "unit": "nM"}, {"measurement": "EC50", "setting": "[4]", "value": "> 1000", "unit": "nM"}, {"measurement": "IC50", "setting": "[5]", "value": "101 to 1000", "unit": "nM"}, {"measurement": "EC50", "setting": "[6]", "value": "> 1000", "unit": "nM"}]}
{"compound": "CC[C@H]1CC[C@@H](C2=CC(C)(C)Oc3c(Br)cc(C(=O)Nc4ccc(C(=O)O)c(F)c4)cc32)CC1", "note": "[Compound 40]", "values": [{"measurement": "IC50", "setting": "[1]", "value": "> 1000", "unit": "nM"}, {"measurement": "EC50", "setting": "[2]", "value": "> 1000", "unit": "nM"}, {"measurement": "Antagonist Activity RARα Efficacy", "setting": "[3]", "value": "† (†, RARα antagonist efficacy >85%)"}, {"measurement": "IC50", "setting": "[3]", "value": "< 1", "unit": "nM"}, {"measurement": "EC50", "setting": "[4]", "value": "> 1000", "unit": "nM"}, {"measurement": "IC50", "setting": "[5]", "value": "> 1000", "unit": "nM"}, {"measurement": "EC50", "setting": "[6]", "value": "> 1000", "unit": "nM"}]}
